{
  "source": "ChEMBL document CHEMBL1944551",
  "about": "“An integrated computational workflow for efficient and quantitative modeling of renin inhibitors” (Bioorg Med Chem, 2012)",
  "data": [
    {"experiment": "physchem", "conditions": "octanol/buffer", "values": [
      {"smiles": "CCC(=O)NCc1ccc(Cl)c(CN(C(=O)[C@H]2CNCC(=O)N2c2ccc(OCCCOCc3ccccc3)cc2)C2CC2)c1", "logP": 5.04},
      {"smiles": "CCC(=O)NCc1ccc(Cl)c(CN(C(=O)[C@H]2CNCC(=O)N2c2ccc(OCCCOCc3ccccc3OC)cc2)C2CC2)c1", "logP": 5},
      {"smiles": "CNC(=O)OCc1ccc(Cl)c(CN(C(=O)[C@H]2CNCC(=O)N2c2ccc(CCCOc3c(F)ccc(F)c3F)cc2)C2CC2)c1", "logP": 5.48},
      {"smiles": "COC(=O)NCCc1ccc(Cl)c(CN(C(=O)[C@H]2CNCC(=O)N2c2ccc(OCCOc3c(Cl)cc(C)cc3Cl)cc2)C2CC2)c1", "logP": 5.67},
      {"smiles": "COC(=O)NCCc1ccc(Cl)c(CN(C(=O)[C@H]2CNCC(=O)N2c2ccc(OCCOc3c(Cl)cc(C)cc3Cl)nc2)C2CC2)c1", "logP": 4.84},
      {"smiles": "COC(=O)NCCc1ccc(Cl)c(CN(C(=O)[C@H]2CNCC(=O)N2c2ccc(COC(=O)c3ccccc3)cc2)C2CC2)c1", "logP": 4.57},
      {"smiles": "CCC(=O)NCc1ccc(Cl)c(CN(C(=O)[C@H]2CNCC(=O)N2c2cnc(OCCCOCc3ccccc3OC)nc2)C2CC2)c1", "logP": 2.98},
      {"smiles": "CCC(=O)NCc1ccc(Cl)c(CN(C(=O)[C@H]2CNCC(=O)N2c2ccc(CCCOc3cccc(Cl)c3)cc2)C2CC2)c1", "logP": 5.84},
      {"smiles": "CCC(=O)NCc1ccc(Cl)c(CN(C(=O)[C@H]2CNCC(=O)N2c2ccc(CCCOc3c(F)ccc(F)c3F)cc2)C2CC2)c1", "logP": 5.67},
      {"smiles": "Cc1cc(Cl)c(OCCOc2ccc(N3C(=O)CNC[C@@H]3C(=O)N(Cc3cc(CC(=O)NC4CC4)ccc3Cl)C3CC3)cc2)c(Cl)c1", "logP": 5.91},
      {"smiles": "Cc1cc(Cl)c(OCCOc2ccc(N3C(=O)CNC[C@@H]3C(=O)N(Cc3cc(CC(=O)NC4CC4)ccc3Cl)C3CC3)cn2)c(Cl)c1", "logP": 5.08},
      {"smiles": "O=C(Cc1ccc(Cl)c(CN(C(=O)[C@H]2CNCC(=O)N2c2ccc(COC(=O)c3ccccc3)cc2)C2CC2)c1)NC1CC1", "logP": 4.81},
      {"smiles": "O=C(Cc1ccc(Cl)c(CN(C(=O)[C@H]2CNCC(=O)N2c2ccc(OCCCOCc3ccccc3)cc2)C2CC2)c1)NC1CC1", "logP": 5.18},
      {"smiles": "COc1ccccc1COCCCOc1ccc(N2C(=O)CNC[C@@H]2C(=O)N(Cc2cc(CC(=O)NC3CC3)ccc2Cl)C2CC2)cc1", "logP": 5.14},
      {"smiles": "COc1ccccc1COCCCOc1ncc(N2C(=O)CNC[C@@H]2C(=O)N(Cc2cc(CC(=O)NC3CC3)ccc2Cl)C2CC2)cn1", "logP": 3.13},
      {"smiles": "CCNC(=O)Cc1ccc(Cl)c(CN(C(=O)[C@H]2CNCC(=O)N2c2ccc(OCCOc3c(Cl)cc(C)cc3Cl)cc2)C2CC2)c1", "logP": 5.6},
      {"smiles": "CCNC(=O)Cc1ccc(Cl)c(CN(C(=O)[C@H]2CNCC(=O)N2c2ccc(OCCOc3c(Cl)cc(C)cc3Cl)nc2)C2CC2)c1", "logP": 4.77},
      {"smiles": "CCNC(=O)Cc1ccc(Cl)c(CN(C(=O)[C@H]2CNCC(=O)N2c2ccc(COC(=O)c3ccccc3)cc2)C2CC2)c1", "logP": 4.49},
      {"smiles": "CCNC(=O)Cc1ccc(Cl)c(CN(C(=O)[C@H]2CNCC(=O)N2c2ccc(OCCCOCc3ccccc3)cc2)C2CC2)c1", "logP": 4.87},
      {"smiles": "CCNC(=O)Cc1ccc(Cl)c(CN(C(=O)[C@H]2CNCC(=O)N2c2ccc(OCCCOCc3ccccc3OC)cc2)C2CC2)c1", "logP": 4.82},
      {"smiles": "CCNC(=O)Cc1ccc(Cl)c(CN(C(=O)[C@H]2CNCC(=O)N2c2cnc(OCCCOCc3ccccc3OC)nc2)C2CC2)c1", "logP": 2.81},
      {"smiles": "O=C(Cc1ccc(Cl)c(CN(C(=O)[C@H]2CNCC(=O)N2c2ccc(CCCOc3cccc(Cl)c3)cc2)C2CC2)c1)NC1CC1", "logP": 5.98},
      {"smiles": "O=C(Cc1ccc(Cl)c(CN(C(=O)[C@H]2CNCC(=O)N2c2ccc(CCCOc3c(F)ccc(F)c3F)cc2)C2CC2)c1)NC1CC1", "logP": 5.8},
      {"smiles": "Cc1cc(Cl)c(OCCOc2ccc(N3C(=O)CNC[C@@H]3C(=O)N(Cc3cc(CNC(=O)C4CC4)ccc3Cl)C3CC3)cc2)c(Cl)c1", "logP": 5.65},
      {"smiles": "Cc1cc(Cl)c(OCCOc2ccc(N3C(=O)CNC[C@@H]3C(=O)N(Cc3cc(CNC(=O)C4CC4)ccc3Cl)C3CC3)cn2)c(Cl)c1", "logP": 4.82},
      {"smiles": "O=C(OCc1ccc(N2C(=O)CNC[C@@H]2C(=O)N(Cc2cc(CNC(=O)C3CC3)ccc2Cl)C2CC2)cc1)c1ccccc1", "logP": 4.54},
      {"smiles": "O=C(NCc1ccc(Cl)c(CN(C(=O)[C@H]2CNCC(=O)N2c2ccc(OCCCOCc3ccccc3)cc2)C2CC2)c1)C1CC1", "logP": 4.92},
      {"smiles": "COc1ccccc1COCCCOc1ccc(N2C(=O)CNC[C@@H]2C(=O)N(Cc2cc(CNC(=O)C3CC3)ccc2Cl)C2CC2)cc1", "logP": 4.87},
      {"smiles": "COc1ccccc1COCCCOc1ncc(N2C(=O)CNC[C@@H]2C(=O)N(Cc2cc(CNC(=O)C3CC3)ccc2Cl)C2CC2)cn1", "logP": 2.86},
      {"smiles": "O=C(NCc1ccc(Cl)c(CN(C(=O)[C@H]2CNCC(=O)N2c2ccc(CCCOc3cccc(Cl)c3)cc2)C2CC2)c1)C1CC1", "logP": 5.72},
      {"smiles": "O=C(NCc1ccc(Cl)c(CN(C(=O)[C@H]2CNCC(=O)N2c2ccc(CCCOc3c(F)ccc(F)c3F)cc2)C2CC2)c1)C1CC1", "logP": 5.54},
      {"smiles": "CCNC(=O)Cc1ccc(Cl)c(CN(C(=O)[C@H]2CNCC(=O)N2c2ccc(CCCOc3c(F)ccc(F)c3F)cc2)C2CC2)c1", "logP": 5.49},
      {"smiles": "CNC(=O)OCc1ccc(Cl)c(CN(C(=O)[C@H]2CNCC(=O)N2c2ccc(OCCOc3c(Cl)cc(C)cc3Cl)cc2)C2CC2)c1", "logP": 5.58},
      {"smiles": "CNC(=O)OCc1ccc(Cl)c(CN(C(=O)[C@H]2CNCC(=O)N2c2ccc(OCCOc3c(Cl)cc(C)cc3Cl)nc2)C2CC2)c1", "logP": 4.75},
      {"smiles": "CNC(=O)OCc1ccc(Cl)c(CN(C(=O)[C@H]2CNCC(=O)N2c2ccc(COC(=O)c3ccccc3)cc2)C2CC2)c1", "logP": 4.48},
      {"smiles": "CNC(=O)OCc1ccc(Cl)c(CN(C(=O)[C@H]2CNCC(=O)N2c2ccc(OCCCOCc3ccccc3)cc2)C2CC2)c1", "logP": 4.85},
      {"smiles": "CNC(=O)OCc1ccc(Cl)c(CN(C(=O)[C@H]2CNCC(=O)N2c2ccc(OCCCOCc3ccccc3OC)cc2)C2CC2)c1", "logP": 4.81},
      {"smiles": "CNC(=O)OCc1ccc(Cl)c(CN(C(=O)[C@H]2CNCC(=O)N2c2cnc(OCCCOCc3ccccc3OC)nc2)C2CC2)c1", "logP": 2.8},
      {"smiles": "CNC(=O)OCc1ccc(Cl)c(CN(C(=O)[C@H]2CNCC(=O)N2c2ccc(CCCOc3cccc(Cl)c3)cc2)C2CC2)c1", "logP": 5.65},
      {"smiles": "CC(=O)NCc1ccc(Cl)c(CN(C(=O)[C@H]2CNCC(=O)N2c2ccc(OCCOc3c(Cl)cc(C)cc3Cl)cc2)C2CC2)c1", "logP": 5.29},
      {"smiles": "CC(=O)NCc1ccc(Cl)c(CN(C(=O)[C@H]2CNCC(=O)N2c2ccc(OCCOc3c(Cl)cc(C)cc3Cl)nc2)C2CC2)c1", "logP": 4.47},
      {"smiles": "CC(=O)NCc1ccc(Cl)c(CN(C(=O)[C@H]2CNCC(=O)N2c2ccc(COC(=O)c3ccccc3)cc2)C2CC2)c1", "logP": 4.19},
      {"smiles": "CC(=O)NCc1ccc(Cl)c(CN(C(=O)[C@H]2CNCC(=O)N2c2ccc(OCCCOCc3ccccc3)cc2)C2CC2)c1", "logP": 4.57},
      {"smiles": "COc1ccccc1COCCCOc1ccc(N2C(=O)CNC[C@@H]2C(=O)N(Cc2cc(CNC(C)=O)ccc2Cl)C2CC2)cc1", "logP": 4.52},
      {"smiles": "COc1ccccc1COCCCOc1ncc(N2C(=O)CNC[C@@H]2C(=O)N(Cc2cc(CNC(C)=O)ccc2Cl)C2CC2)cn1", "logP": 2.51},
      {"smiles": "CC(=O)NCc1ccc(Cl)c(CN(C(=O)[C@H]2CNCC(=O)N2c2ccc(CCCOc3cccc(Cl)c3)cc2)C2CC2)c1", "logP": 5.37},
      {"smiles": "CC(=O)NCc1ccc(Cl)c(CN(C(=O)[C@H]2CNCC(=O)N2c2ccc(CCCOc3c(F)ccc(F)c3F)cc2)C2CC2)c1", "logP": 5.19},
      {"smiles": "CCC(=O)NCc1ccc(Cl)c(CN(C(=O)[C@H]2CNCC(=O)N2c2ccc(OCCOc3c(Cl)cc(C)cc3Cl)cc2)C2CC2)c1", "logP": 5.77},
      {"smiles": "CCC(=O)NCc1ccc(Cl)c(CN(C(=O)[C@H]2CNCC(=O)N2c2ccc(OCCOc3c(Cl)cc(C)cc3Cl)nc2)C2CC2)c1", "logP": 4.94},
      {"smiles": "CCC(=O)NCc1ccc(Cl)c(CN(C(=O)[C@H]2CNCC(=O)N2c2ccc(COC(=O)c3ccccc3)cc2)C2CC2)c1", "logP": 4.67}
    ]}
  ]
}
